According to patent US8119662B2, “Crystalline compounds” (Generics [UK] Limited, priority 2005, dated 2012):
Structures can show the parent of a compound that is named as a salt.

Tests used:
[1] = Polymorphic stability following grinding and tablet punching; type: physicochemical
[2] = Compressibility for dosage form preparation (e.g. tablets); type: physicochemical

**Q.** Which “stability (changes in polymorphic form)” value [1] does the source give for `C[C@H](CSC(=O)c1ccccc1)C(=O)N1C[C@@H](Sc2ccccc2)C[C@H]1C(=O)O` [(4S)-1-[(2S)-3-(benzoylthio)-2-methylpropionyl]-4-(phenylthio)-L-proline calcium salt] here?
**A.** no changes in polymorphic form

**Q.** What about the compressibility [2] of the same molecule?
**A.** excellent compressibility
